Laboratory results reported in patent US20030211941A1, “Methods for identifying signalling molecules” (priority 2002, published 2003).
Non-standard residues stand in square brackets, D forms with d. Hyp = O=C(O)[C@@H]1C[C@@H](O)CN1

Key:
[1] = tested on: tobacco proteinase inhibitor protein; assay: Proteinase inhibitor inducing assay (tobacco leaves; supplied to young tobacco plants through cut stems); type: in vivo; conditions: for Induction of tobacco proteinase inhibitor protein (in words): tobacco plants; for Concentrations for 1/2 maximal activity in Proteinase Inhibitor Inducing Assays (Tobacco Leaves): young tobacco plants, supplied through cut stems
Description: The purified polypeptides were sequenced and named tobacco systemin I (peak I activity) (SEQ ID NO: 1) and tobacco systemin II (peak II activity) (SEQ ID NO: 2). Both are polypeptides of 18 amino acids and both are glycosylated. Using mild acid hydrolysis, the carbohydrates were removed, and the masses of both tobacco systemin I (SEQ ID NO: 1) and tobacco systemin II (SEQ ID NO: 2) were analyzed before and after acid hydrolysis using a MALDI-MS. The amino acid sequence of tobacco systemin I is NH2-RGANLPXXSXASSXXSKE-COO. (SEQ ID NO:1). The amino acid sequence of tobacco systemin II is NH2-NRKPLSXXSXKPADGQRP-COO (SEQ ID NO:2). The one letter abbreviation “X” represents hydroxyproline. The masses after acid hydrolysis exactly matched the masses obtained by sequence analysis. […] The potency of the tobacco systemins was similar to that found for tomato systemin (disclosed in U.S. Pat. No. 5,378,819) in its alkalinization response in tomato cell suspension cultures and in inducing proteinase inhibitors in leaves of excised tomato plants (Table 1).

[2] = tested on: tobacco suspension cell cultures; assay: Alkalinization assay (tobacco cell suspension cultures); type: cell-based, N. tabacum; conditions: for EC50: 2 ml tobacco suspension cells, read-out: Concentrations for 1/2 maximal activity in Alkalinization Assays (Tobacco Cell Suspension Cultures); for Alkalinization of tobacco suspension cell cultures (in words): tobacco suspension cells
Description: Column fractions were assayed using suspension-cultured tobacco cells as follows. An aliquot of cells (usually 1 to 2 ml) were placed in the wells of culture plates, then aliquots from each column fraction (1 to 10 μL) were placed in each well of the culture plates. The cells in the plates were agitated by a circular motion of the rotary shaker on which they sat. The pH was then monitored over time and the change in pH at various times was plotted versus fraction number.
The two active peaks were solubilized in 1 ml 0.1% TFA each and injected into a narrow bore reversed-phase C18 column (Vydac, Column 218TP52, 2.1 by 250 mm, 5 μm beads, 300 angstrom pores). Solvent A consisted of 0.1% TFA in water, and solvent B was 0.05% TFA in methanol. Samples were injected in solvent A, and after 2 minutes, a 90 minute gradient from 0% solvent B to 30% solvent B was applied. The flow rate was 0.25 ml/min and the fractions (0.25 ml) were monitored at 214 nm and 2 μl were assayed for their alkalinization activity in tobacco cell cultures. The elution and alkalinization profiles for peak I activity are shown in FIG. 3A and FIG. 3B, respectively. The elution and alkalinization profile for peak II activity are shown in FIG. 4A and FIG. 4B, respectively.
The cells can be maintained in 125 mL Ehrlenmeyer flasks on an orbital shaker (160 rpm) under constant light. Three milliliters of cells are subcultured every seven days into 45 mL of sterile media (unbuffered, pH 5.5 adjusted with 0.1 M KOH) containing 3% sucrose, 4.3 g/L Murashige and Skoog salt mixture, 5 mg/L 1-napthylacetic acid, 2 mg/L 6-benzylaminopurine, 110 mg/L Nitsch and Nitsch vitamin powder, 1 mg/L thiamine, 100 mg/L myo-inositol and 1 mM EDTA. Cells can be used for alkalinization assays from 4 to 8 days after subculturing.

[3] = tested on: MAP kinase protein; assay: MAP kinase assay in tobacco leaf extracts; type: biochemical
From the text: The ability of tobacco systemin I (SEQ ID NO: 1), tobacco systemin II (SEQ ID NO: 2) and the 5 kDa polypeptide, described in Example 2 herein, to stimulate the phosphorylation of a MAP kinase protein in tobacco leaf extracts was investigated. The MAP kinase assay utilized was essentially as described in Stratmann, J. W. and Ryan, C. A., Proc. Nat'l. Acad. Sci. U.S.A. 94:11085-11089 (1997), which publication is incorporated herein by reference.

What does the source list for “18 amino acid glycosylated polypeptide from tobacco, NH2-NRKPLSXXSXKPADGQRP-COO (X = hydroxyproline), 6 pentose units (H-NRKPLS[Hyp][Hyp]S[Hyp]KPADGQRP-OH; also: 6 pentose units glycosylation, places not given here) [Tob Sys II, tobacco systemin II]”?
Induction of tobacco proteinase inhibitor protein (in words) [1]: active at low picomole levels; Concentrations for 1/2 maximal activity in Proteinase Inhibitor Inducing Assays (Tobacco Leaves) [1]: ˜200 fmol/plant; EC50 [2]: ~0.25 nM; Alkalinization of tobacco suspension cell cultures (in words) [2]: active at low picomole levels; MAP kinase stimulating activity (in words) [3]: possess MAP kinase stimulating activity

Which “Induction of tobacco proteinase inhibitor protein (in words)” value [1] does the source give for “18 amino acid glycosylated polypeptide from tobacco, NH2-RGANLPXXSXASSXXSKE-COO (X = hydroxyproline), 9 pentose units (H-RGANLP[Hyp][Hyp]S[Hyp]ASS[Hyp][Hyp]SKE-OH; also: 9 pentose units glycosylation, places not given here) [Tob Sys I, tobacco systemin I]” here?
The value was “active at low picomole levels”.

What about the “Concentrations for 1/2 maximal activity in Proteinase Inhibitor Inducing Assays (Tobacco Leaves)” value [1] of the same substance?
The value was “˜200 fmol/plant”.

And the EC50 [2]?
Its EC50 is ~0.25 nM.

And the “Alkalinization of tobacco suspension cell cultures (in words)” value [2]?
Its value is “active at low picomole levels”.

With “tomato systemin (AVQSKPPSKRDPPKMQTD; Systemin; UniProt P27058 179-196, looked up) [tomato systemin disclosed in U.S. Pat. No. 5,378,819, reference compound]” as the substance, how does the “Alkalinization of tobacco suspension cell cultures (in words)” value [2] read?
The value was “does not cause alkalinization”.
